Reference: patent US12378201B2, “Histone demethylase inhibitors for treating cancers” (The Board of Regents of the University of Texas System, priority 2019, dated 2025)

How the values were obtained:
[1] = system: LNCaP and 22rv1 cell lines; assay: SAR statements on LNCaP and 22rv1 cell lines; type: cell-based; conditions: LNCaP 1 μM, 22rv1 0.5 μM
Procedure: All compounds were evaluated for their effects on LNCaP and 22rv1 cell lines at 1 and 0.5 μM concentrations, respectively. […] For this purpose different analogues of B-3 with chain length varying from 0 to 4 carbon were synthesized (Table 1). […] In view of the availability of a variety of commercially available benzyl amines over phenyl propyl amines and method to functionalize analogues with 1C chain compound 14c was selected for further modification.

[2] = system: castration resistant prostate cancer cell line 22RV1; assay: 22RV1 xenograft tumor growth in NOD/SCID mice; type: in vivo; conditions: in words
Procedure: All animal work was approved by the Institutional Animal Care and Use Committee. NOD/SCID mice (6-8 weeks old) were subcutaneously injected in the flank region with castration resistant prostate cancer cell line 22RV1 (1×10^6 cells/site) mixed with 50% Matrigel (BD Biosciences). When tumor volumes reached 50-100 mm^3 in size, animals were randomly divided into 5 groups: control (DMSO); B3 (50 or 10 mg/kg in DMSO); SS-79N (20 or 10 mg/kg in DMSO). Each group included six mice. Tumor volume (cubic millimeters) was measured by caliper twice a week and calculated by using the ellipsoid formula (π/6×length×width×depth, see FIGS. 12A-12B).

[3] = system: prostate and kidney cancer cells; assay: Cell growth inhibition / anti-proliferation (MTT); type: cell-based, human
Text: Results of MTT assays for compounds disclosed herein can be found in FIGS. 1, 2A-2C, 3, 4, 5, 6, 7, 8, 9, 10A-10C, and 11A-11C.

LnCap cells = assay: Effect on LnCap cell viability; conditions: 1 μM
Procedure: The initial interest was to see the importance of length of side chain on B-3. […] Relative cell growth can be assessed using the MTT (3-(4,5-dimethylthiazol-2-yl)-2,5-diphenyltetrazolium bromide) assay, a colorimetric assay for assessing cell metabolic activity. Cells (1000 to 2000 cells/well) in 150 μL culture medium were seeded in wells of a 96-well plate one day before various concentrations of drugs were added. After continuing culture in the presence of the drugs for the indicated time (3-4 days), 20 μL of 5 mg/mL MTT solution (Sigma-Aldrich) was added into each well. After incubation at 37° C. for 30 min, the culture medium was removed and 100 μL of DMSO was added to dissolve MTT crystals. Plates were shaken for 15 min at room temperature and absorbance at OD590 was read by plate reader.

- IC50 ([3]; prostate and kidney cancer cells): < 200 nM
SMILES: O=C(NCc1ccc(C(=O)NC2CCC(C(F)(F)F)CC2)cc1)c1cccc(-c2cc(O)c3ncccc3c2)c1 (stereo not drawn) [Compound 17l]
- activity on cell lines, in words (SAR) [1]: improved further
- in vivo efficacy [2]: favorable in vivo efficacy
- increase in potency compared to other 8-hydroxyquinoline-containing compounds, such as B3 ([3]; IC50 versus B3): more than 20 fold
- efficacy compared with the known GSK KDM6B inhibitor ([3]; in words): much better efficacy than the known GlaxoSmithKline (GSK) KDM6B inhibitor
- % Cell Viability of LnCap cells at 1 μM (LnCap cells): 24.2%
